Test results published in patent publication US9090617B1, “Agonists of Src homology-2 containing protein tyrosine phosphatase-1 and treatment methods using the same” (National Taiwan University, priority 2011, dated 2015).

Tests used:
PLC5 cells = experiment: MTT assay for cell growth inhibition in PLC5 cells; format: cell-based
Procedure: These compounds were analyzed by MTT assay for cell growth inhibition in the PLC5 cells.
Next, we changed the pyridine to a quinoline ring and amide linker to generate compounds 12-25. These compounds were also analyzed by MTT assay for cell growth inhibition in the PLC5 cells.

HCC cells [1] = experiment: Apoptosis analysis by flow cytometry (sub-G1); format: cell-based; details: HCC cells, 24 h
Procedure: Apoptotic cells were measured by flow cytometry (sub-G1). After treatment with various compounds, cells were trypsinized, collected by centrifugation and resuspended in PBS. After centrifugation, the cells were washed in PBS and resuspended in […] (PI) staining solution. Specimens were incubated in the dark for 30 min at 37° C. and then analyzed with an EPICS Profile II flow cytometer (Coulter Corp., Hialeah, Fla.). All experiments were performed in triplicate
Collected cells were fixed in 75% Ethanol and stained with 20 ug/ml Propidium Iodide (PI). Sub-G1 analysis was performed by flow-cytometry. […] Points, mean; bars, SD (n=6).

HCC cells [2] = experiment: cells
Text: Points, mean; bars, SD (n=6).
Points, mean; bars, SD ([…]). […] The N-SH2 domain is in orange, the C-SH2 domain is in marine, the PTP domain is in hot pink, and the linkers between them are in gray. […] ELISA, enzyme-linked immunosorbent assay.

[3] = tested on: p-STAT3, cyclin D1, survivin, Mc1-1; experiment: Western blot of STAT3-related proteins in HCC cells; format: cell-based; details: PLC5 cells, 5 and 10 μM, 24 h
Procedure: Cells were treated with various compounds at 5 and 10 μM for 24 h. Cell lysates were analyzed by western blot.
HCC cells treated with SC-43 (10 μM for 24 h) were collected with RIPA lysis buffer. Antibodies for immunoblotting such as cyclin D1 was purchased from Santa Cruz Biotechnology. Other antibodies such as survivin, phospho-STAT3 (Tyr705), STAT3, Mc1-1, SOCS1, and SOCS3 were from Cell Signaling.

Row | SMILES | IC50 (PLC5 cells) [µM] | also measured
1 | CNC(=O)c1cc(Oc2ccc(NS(=O)(=O)c3ccc(F)cc3)cc2)ccn1 [Compound 4, 4-(4-(4-Fluorophenylsulfonamido)phenoxy)-N-methylpicolinamide] | > 40 | –
2 | CNC(=O)c1cc(Oc2ccc(NC(=O)c3ccc(C(F)(F)F)cc3)cc2)ccn1 [Compound 11, N-Methyl-4-(4-(4-(trifluoromethyl)benzamido)phenoxy)picolinamide] | > 40 | –
3 | CNC(=O)c1cc(Oc2ccc(NS(=O)(=O)c3ccc([N+](=O)[O-])cc3)cc2)ccn1 [Compound 3, N-Methyl-4-(4-(4-nitrophenylsulfonamido)phenoxy)picolinamide] | > 40 | –
4 | CNC(=O)c1cc(Oc2ccc(NS(=O)(=O)c3ccc(C(F)(F)F)cc3Br)cc2)ccn1 [Compound 7, 4-(4-(2-Bromo-4-(trifluoromethyl)phenylsulfonamido)phenoxy)-N-methylpicolinamide] | > 40 | –
5 | O=S(=O)(Nc1ccc(Oc2ccnc3ccccc23)cc1)c1ccc(C(F)(F)F)cc1Br [Compound 14, 2-Bromo-N-(4-(quinolin-4-yloxy)phenyl)-4-(trifluoromethyl)benzenesulfonamide] | > 40 | –
6 | N#Cc1ccc(Oc2cccc(NC(=O)C3(C(=O)Nc4cccc(Oc5ccc(C#N)cc5)c4)CC3)c2)cc1 [SC-67, N,N′-bis(3-(4-cyanophenoxyl)phenyl)cyclopropane-1,1-dicarboxamide] | – | apoptosis (sub-G1) (HCC cells [1]): has no activity in inducing cancer cells (PLC5) apoptosis
7 | O=[N+]([O-])c1cc(C(F)(F)F)ccc1S(=O)(=O)Nc1ccc(Oc2ccnc3c([N+](=O)[O-])cccc23)cc1 [Compound 13, 2-Nitro-N-(4-(8-nitroquinolin-4-yloxy)phenyl)-4-(trifluoromethyl)benzenesulfonamide] | > 40 | –
8 | O=S(=O)(Nc1cccc(Oc2ccn3cc(-c4ccccc4)nc3c2)c1)c1cccc(C(F)(F)F)c1 [SC-37, N-(3-(2-phenylimidazo[1,2-a]pyridin-7-yloxy)phenyl)-3-(trifluoromethyl)benzenesulfonamide] | – | apoptosis (sub-G1) (HCC cells [1]): has no activity in inducing cancer cell apoptosis
9 | O=C(Nc1cccc(Oc2ccnc3c([N+](=O)[O-])cccc23)c1)c1cc(C(F)(F)F)cc(C(F)(F)F)c1 [Compound 23, N-(3-(8-Nitroquinolin-4-yloxy)phenyl)-3,5-bis(trifluoromethyl)benzamide] | > 40 | –
10 | Nc1cccc2c(Oc3cccc(NC(=O)c4cc(C(F)(F)F)cc(C(F)(F)F)c4)c3)ccnc12 [Compound 24, N-(3-(8-Aminoquinolin-4-yloxy)phenyl)-3,5-bis(trifluoromethyl)benzamide] | 19 | –
11 | O=C(Nc1ccc(Oc2ccnc3c([N+](=O)[O-])cccc23)cc1)c1cc(C(F)(F)F)cc(C(F)(F)F)c1 [Compound 17, N-(4-(8-Nitroquinolin-4-yloxy)phenyl)-3,5-bis(trifluoromethyl)benzamide] | > 40 | –
12 | CNC(=O)c1cc(Oc2ccc(NC(=O)c3cc(C(F)(F)F)cc(C(F)(F)F)c3)cc2)ccn1 [Compound 9, 4-(4-(3,5-Bis(trifluoromethyl)benzamido)phenoxy)-N-methylpicolinamide] | > 40 | –
13 | CNC(=O)c1cc(Oc2ccc(NS(=O)(=O)c3ccc(C(C)(C)C)cc3)cc2)ccn1 [Compound 5, 4-(4-(4-tert-Butylphenylsulfonamido)phenoxy)-N-methylpicolinamide] | > 40 | –
14 | CNC(=O)c1cc(Oc2ccc(NC(=O)c3cc(F)ccc3C(F)(F)F)cc2)ccn1 [Compound 10, 4-(4-(5-Fluoro-2-(trifluoromethyl)benzamido)phenoxy)-N-methylpicolinamide] | > 40 | –
15 | N#Cc1ccc(Oc2cc(NC(=O)Nc3ccc(Cl)c(C(F)(F)F)c3)ccc2F)cc1 [SC-111, 1-(4-chloro-3-(trifluoromethyl)phenyl)-3-(3-(4-cyanophenoxy)-4-fluorophenyl)urea] | – | viability of HCC cells / cytotoxicity (HCC cells [2]): exhibits antitumor effect in vitro
16 | Cc1cc(NC(=O)c2cc(C(F)(F)F)cc(C(F)(F)F)c2)ccc1Oc1ccnc2c(N)cccc12 [Compound 21, N-(4-(8-Aminoquinolin-4-yloxy)-3-methylphenyl)-3,5-bis(trifluoromethyl)benzamide] | 25.4 | –
17 | CC(=O)Nc1cccc2c(Oc3ccc(NC(=O)c4cc(C(F)(F)F)cc(C(F)(F)F)c4)cc3C)ccnc12 [Compound 22, N-(4-(8-Acetamidoquinolin-4-yloxy)-3-methylphenyl)-3,5-bis(trifluoromethyl)benzamide] | > 40 | –
18 | O=[N+]([O-])c1cccc2c(Oc3ccc(NS(=O)(=O)c4ccc(C(F)(F)F)cc4Br)cc3)ccnc12 [Compound 15, 2-Bromo-N-(4-(8-nitroquinolin-4-yloxy)phenyl)-4-(trifluoromethyl)benzenesulfonamide] | > 40 | –
19 | CNC(=O)c1cc(Oc2ccc(NS(=O)(=O)c3ccccc3)cc2)ccn1 [Compound 2, N-Methyl-4-(4-(phenylsulfonamido)phenoxy)picolinamide] | > 40 | –
20 | O=C(Nc1ccc(Oc2ccnc3ccccc23)cc1)c1cc(C(F)(F)F)ccc1F [Compound 18, 2-Fluoro-N-(4-(quinolin-4-yloxy)phenyl)-5-(trifluoromethyl)benzamide] | 21.1 | –
21 | O=C(Nc1ccc(Oc2ccnc3ccccc23)cc1)c1cc(C(F)(F)F)cc(C(F)(F)F)c1 [Compound 16, N-(4-(Quinolin-4-yloxy)phenyl)-3,5-bis(trifluoromethyl)benzamide] | 16 | –
22 | O=C(Nc1ccc(Oc2ccnc3c([N+](=O)[O-])cccc23)cc1)c1cc(C(F)(F)F)ccc1F [Compound 19, 2-Fluoro-N-(4-(8-nitroquinolin-4-yloxy)phenyl)-5-(trifluoromethyl)benzamide] | > 40 | –
23 | CNC(=O)c1cc(Oc2ccc(NS(=O)(=O)c3ccccc3[N+](=O)[O-])cc2)ccn1 [Compound 8, N-Methyl-4-(4-(2-nitrophenylsulfonamido)phenoxy)picolinamide] | > 40 | –
24 | Cc1cc(NC(=O)c2cc(C(F)(F)F)cc(C(F)(F)F)c2)ccc1Oc1ccnc2c([N+](=O)[O-])cccc12 [Compound 20, N-(3-Methyl-4-(8-nitroquinolin-4-yloxy)phenyl)-3,5-bis(trifluoromethyl)benzamide] | > 40 | –
25 | CC(=O)Nc1cccc2c(Oc3cccc(NC(=O)c4cc(C(F)(F)F)cc(C(F)(F)F)c4)c3)ccnc12 [Compound 25, N-(3-(8-Acetamidoquinolin-4-yloxy)phenyl)-3,5-bis(trifluoromethyl)benzamide] | 10.8 | –
26 | O=[N+]([O-])c1cc(C(F)(F)F)ccc1S(=O)(=O)Nc1ccc(Oc2ccnc3ccccc23)cc1 [Compound 12, 2-Nitro-N-(4-(quinolin-4-yloxy)phenyl)-4-(trifluoromethyl)benzenesulfonamide] | > 40 | cyclin D1 and survivin level [3]: had no effect on either protein
27 | CNC(=O)c1cc(Oc2ccc(NS(=O)(=O)c3ccc4ccccc4c3)cc2)ccn1 [Compound 6, N-Methyl-4-(4-(naphthalene-2-sulfonamido)phenoxy)picolinamide] | > 40 | –
